From patent US5077293A, “1-indolyalkyl-4-(alkoxypyrimidinyl)piperazines” (Bristol-Myers Squibb Co., priority 1990, dated 1991)
pIC50: −log10 of the molar value.

Test system: serotonin uptake
Experiment: Inhibition of serotonin uptake (in vitro): inhibition of synaptosomal reuptake of tritiated serotonin
Type: biochemical
Procedure: Determination of endogenous monoaminergic re-uptake inhibition values both for serotonin and norepinephrine was accomplished using test methods described by P. Skolnick, et al., Br. J. Pharmacology (1985), 86, pp. 637-644; with only minor modifications. In vitro IC50 (nM) test values were determined for representative compounds of Formula I based on their inhibition of synaptosomal reuptake of tritiated serotonin. Test data IC50 values lower than 500 nM are considered to reflect activity as an inhibitor of serotonin reuptake. Compounds with Ic50 values lower than 100 nM comprise preferred compounds.

With `CCC1CN(c2ncncc2OC)CCN1CCCc1c[nH]c2ccccc12` (stereo not shown) [Example 33] as the compound, how does the pIC50 read?
Its pIC50 is 8.58.

With `COc1cc(N2CCN(CCCc3c[nH]c4ccccc34)CC2)ncn1` [Example 37] as the compound, how does the pIC50 read?
The pIC50 was 8.23.

With `COc1cncnc1N1CCN(CCCc2c[nH]c3ccc(Cl)cc23)C(C)C1` (stereo not shown) [Example 32] as the compound, how does the pIC50 read?
The pIC50 was 8.68.

`COc1cncnc1N1CCN(CCc2c[nH]c3cc(F)c(F)cc23)CC1` [Example 34] was tested. Which pIC50 did it give?
Its pIC50 is 8.51.

With `COc1cc(N2CCN(CCCc3c[nH]c4ccccc34)C(C)C2)ncn1` (stereo not shown) [Example 39] as the compound, how does the pIC50 read?
Its pIC50 is 8.03.

How did the pIC50 turn out when `COc1cncnc1N1CCN(CCCc2c[nH]c3cc(F)c(F)cc23)C(C)C1` (stereo not shown) [Example 30] was run?
The pIC50 was 8.84.

`COc1cncnc1N1CCN(CCCc2c[nH]c3ccc(F)cc23)C(C)C1` (stereo not shown) [Example 23, 3-[3-[4-(5-Methoxy-4-pyrimidinyl)-2-methyl-1-piperazinyl]propyl]-5-fluoroindole] was tested. Which pIC50 did it give?
Its pIC50 is 10.52.

How did the pIC50 turn out when `COc1cncnc1N1CCN(CCCc2c[nH]c3ccc(Cl)cc23)CC1` [Example 29] was run?
Its pIC50 is 8.54.

`COc1cncnc1N1CCN(CCCc2c[nH]c3cc(F)ccc23)C(C)C1` (stereo not shown) [Example 25, 3-[3-[4-(5-Methoxy-4-pyrimidinyl)-2-methyl-1-pioerazinyl]-propyl]-6-fluoroindole] was tested. Which pIC50 did it give?
The pIC50 was 8.43.

With `CCOc1cncnc1N1CCN(CCCc2c[nH]c3ccccc23)CC1` [Example 27] as the compound, how does the pIC50 read?
The pIC50 was 8.20.

`CCOc1cncnc1N1CCN(CCCc2c[nH]c3ccccc23)C(C)C1` (stereo not shown) [Example 38] was tested. Which pIC50 did it give?
Its pIC50 is 7.87.

`COc1cncnc1N1CCN(CCCc2cn(C)c3ccccc23)C(C)C1` (stereo not shown) [Example 36] was tested. Which pIC50 did it give?
Its pIC50 is 8.33.

How did the pIC50 turn out when `COc1cncnc1N1CCN(CCCc2c[nH]c3ccc(F)cc23)CC1` [Example 24, 3-[3-[4-(5-Methoxy-4-pyrimidinyl)-1-piperazinl]propyl]-5-fluoroindole] was run?
Its pIC50 is 9.52.

How did the pIC50 turn out when `COc1cncnc1N1CCN(CCc2c[nH]c3ccc(F)cc23)CC1` [Example 31] was run?
The pIC50 was 9.04.

How did the pIC50 turn out when `COc1cncnc1N1CCN(CCCc2c[nH]c3ccccc23)CC1` [Example 28] was run?
The pIC50 was 8.37.

With `COc1cncnc1N1CCN(CCc2c[nH]c3ccc(F)cc23)C(C)C1` (stereo not shown) [Example 35] as the compound, how does the pIC50 read?
Its pIC50 is 8.51.
